Test results reported in patent US20250034088A1, “LIPIDS AND USES THEREOF” (TAIWAN BIO-MANUFACTURING CORPORATION, priority 2023, published 2025).

Key:
[1] = LNP hydrodynamic size, polydispersity index and zeta potential by Zetasizer; type: physicochemical; settings: FLuc mRNA-loaded LNP
Method: (§1) The Firefly luciferase (FLuc) reporter mRNA-loaded lipid nanoparticles (LNPs) were formulated by NANOASSEMBLR® IGNITE™. Briefly, the lipid, cholesterol, 1,2-dimyristoyl-rac-glycero-3-methoxypolyethylene glycol-2000 (DMG-PEG2000), and […] (DSPC) mixture was prepared in ethanolic solution at the % mole ratio of […]. Three units of FLuc mRNA was dissolved in 25 mM sodium acetate pH 5.0 buffer and one unit of lipid mixture were rapidly combined in the microfluidic mixing cartridge at an amine-to-phosphate (N/P) ratio constant at 6, and the instrument flow rate set at 12 mL/min. The mRNA-LNPs performed a 40-fold dilution of calcium and magnesium-free phosphate-buffered saline (PBS) to reach pH neutral. Then, LNPs were concentrated using Amicon® Ultra-15 Centrifugal Filter Unit.
The mRNA-LNPs were characterized in terms of hydrodynamic size (z-average diameter), zeta potential, and polydispersity index by ZETASIZER™ PRO BLUE (MALVERN PANALYTICAL®). A QUANT-IT™ RIBOGREEN assay kit (THERMOFISHER®) was conducted to identify the mRNA concentration and encapsulation efficiency. In brief, mRNA-LNPs were diluted in equal volumes of Tris/EDTA (TE) buffer or 2% Triton X-100 in TE buffer. After that, a RIBOGREEN reagent was added to each sample and incubated at 37° C. in absence of light for 15 min. The fluorescence intensity (Ex/Em 480/520 nm) was detected on a TECAN™ Microplate reader. The encapsulation efficiency (E.E) can be calculated by the formula: […]

[2] = mRNA encapsulation efficiency by RiboGreen assay; type: physicochemical; settings: FLuc mRNA-loaded LNP made with the lipid; for Encap)-sulation (%: Table 1
Method: as §1
The mRNA-LNPs were characterized in terms of hydrodynamic size (z-average diameter), zeta potential, and polydispersity index by ZETASIZER™ PRO BLUE (MALVERN PANALYTICAL®). A QUANT-IT™ RIBOGREEN assay kit (THERMOFISHER®) was conducted to identify the mRNA concentration and encapsulation efficiency. In brief, mRNA-LNPs were diluted in equal volumes of Tris/EDTA (TE) buffer or 2% Triton X-100 in TE buffer. After that, a RIBOGREEN reagent was added to each sample and incubated at 37° C. in absence of light for 15 min. The fluorescence intensity (Ex/Em 480/520 nm) was detected on a TECAN™ Microplate reader. The encapsulation efficiency (E.E) can be calculated by the formula:
E.E(%)=(Total mRNA concentration−Unencapsulated mRNA concentration)/(Total mRNA concentration)×100%

HEPG2 cells [3] = assay: Cytotoxicity in HEPG2 cells (Cell Counting Kit-8); type: cell-based; settings: FLuc mRNA-LNPs, 18 hours
Method: (§2) To investigate the potential and cytotoxicity of mRNA-LNP made from novel lipids, FLuc mRNA (TRILINK®) was encapsulated into LNPs and transfected to the cell line. HEPG2 cells were maintained at 37° C. under 5% CO2 in a DMEM medium with 10% fetal bovine serum. Cells were seeded at 4×10^4 cells/well and treated with FLuc mRNA-LNPs for 18 hours while cell confluency reach 70%. To explore transfection efficiency, HEPG2 cells were treated with D-luciferin and mixed thoroughly for another incubation of 5 min at 37° C. The luminescence intensity was recorded using M200 Microplate Reader (TECAN®). Cell viability was evaluated by Cell Counting Kit-8 (SIGMA-ALDRICH®) and the absorbance was measured at 450 nm.

HEPG2 cells [4] = assay: Transfection efficiency of FLuc mRNA-LNPs in HEPG2 cells (luminescence); type: cell-based; settings: 18 hours
Method: as §2

Row | LNP zeta potential (mV) ([1]; Table 1) | PDI ([1]; Table 1) | LNP size (nm) ([1]; z-average diameter, Table 1) | Encap)-sulation (% [2] [%] | LNP size (nm) ([1]; Table 2) | LNP zeta potential (mV) ([1]; Table 2) | PDI ([1]; Table 2) | Encapsulation (%) ([2]; Table 2) | Compound | Cytotoxicity in HEPG2 (HEPG2 cells [3]) | Transfection efficiency (relative to SM-102, %) (HEPG2 cells [4]) [%]
1 | 15.00 | 0.06 | 88.33 | 97.36 |  |  |  |  | CCCCCCC(CCCC)COC(=O)CCCCO[C@H]1CN(CCCO)C[C@H]1OCCCCC(=O)OCC(CCCC)CCCCCC (stereo partly drawn) [Compound 20, bis(2-butyloctyl) 5,5′-(((3R,4S)-1-(3-hydroxypropyl)pyrrolidine-3,4-diyl)bis(oxy))dipentanoate] |  | 
2 | 6.25 | 0.05 | 79.74 | 97.31 |  |  |  |  | CCCCCCCCCCC(CCCCCCCC)COC(=O)CCCCO[C@H]1CN(CCCCCCO)C[C@H]1OCCCCC(=O)OCC(CCCCCCCC)CCCCCCCCCC (stereo partly drawn) [Compound 19, bis(2-octyldodecyl)5,5′-(((3R,4S)-1-(6-hydroxyhexyl)pyrrolidine-3,4-diyl)bis(oxy))dipentanoate] |  | 
3 | 9.52 | 0.03 | 86.61 | 97.57 |  |  |  |  | CCCCCCCCCCC(CCCCCCCC)COC(=O)CCCCO[C@H]1CN(CCCCCO)C[C@H]1OCCCCC(=O)OCC(CCCCCCCC)CCCCCCCCCC (stereo partly drawn) [Compound 18, bis(2-octyldodecyl)5,5′-(((3R,4S)-1-(5-hydroxypentyl)pyrrolidine-3,4-diyl)bis(oxy))dipentanoate] |  | 
4 | 14.91 | 0.0532 | 93.39 | 98.87 |  |  |  |  | CCCCCCC(CCCC)COC(=O)CCCCO[C@H]1CN(CCCCCO)C[C@H]1OCCCCC(=O)OCC(CCCC)CCCCCC (stereo partly drawn) [Compound 21, bis(2-butyloctyl) 5,5′-(((3R,4S)-1-(5-hydroxypentyl)pyrrolidine-3,4-diyl)bis(oxy))dipentanoate] |  | 
5 | 10.78 | 0.05 | 148.20 | 98.18 |  |  |  |  | CCCCCCC(CCCC)COC(=O)CCCCO[C@H]1CN(CCCCCCO)C[C@H]1OCCCCC(=O)OCC(CCCC)CCCCCC (stereo partly drawn) [Compound 22, bis(2-butyloctyl) 5,5′-(((3R,4S)-1-(6-hydroxyhexyl)pyrrolidine-3,4-diyl)bis(oxy))dipentanoate] |  | 

Second part, the compound before the results:

Row | Compound | LNP zeta potential (mV) ([1]; Table 1) | PDI ([1]; Table 1) | LNP size (nm) ([1]; z-average diameter, Table 1) | Encap)-sulation (% [2] [%] | LNP size (nm) ([1]; Table 2) | LNP zeta potential (mV) ([1]; Table 2) | PDI ([1]; Table 2) | Encapsulation (%) ([2]; Table 2) | Cytotoxicity in HEPG2 (HEPG2 cells [3]) | Transfection efficiency (relative to SM-102, %) (HEPG2 cells [4]) [%]
6 | CCCCCCCCC(CCCCCC)C(=O)OCCCCCCO[C@H]1CN(CCCO)C[C@H]1OCCCCCCOC(=O)C(CCCCCC)CCCCCCCC (stereo partly drawn) [Compound 14, (((3S,4R)-1-(3-hydroxypropyl)pyrrolidine-3,4-diyl)bis(oxy))bis(hexane-6,1-diyl)bis(hexyldecanoate)] |  |  |  |  |  |  |  |  | — (The toxicity of compounds 11 and 14 is less than 10%) | 105
7 | CCCCCCCCC(CCCCCCCC)OC(=O)CCO[C@H]1CN(CCO)C[C@H]1OCCC(=O)OC(CCCCCCCC)CCCCCCCC [Compound 1, di(heptadecan-9-yl)3,3′-(((3R,4S)-1-(2-hydroxyethyl)pyrrolidine-3,4-diyl)bis(oxy))dipropionate] | −7.06 | 0.026 | 73.80 | 98.5 |  |  |  |  |  | 
8 | CCCCCCCCC(CCCCCCCC)OC(=O)CCO[C@H]1CN(CCCO)C[C@H]1OCCC(=O)OC(CCCCCCCC)CCCCCCCC [Compound 2] | −5.73 | 0.033 | 74.65 | 98.1 |  |  |  |  |  | 
9 | CCCCCCCCC(CCCCCCCC)OC(=O)CCCCO[C@H]1CN(CCO)C[C@H]1OCCCCC(=O)OC(CCCCCCCC)CCCCCCCC [Compound 4, di(heptadecan-9-yl)5,5′-(((3S,4R)-1-(2-hydroxyethyl)pyrrolidine-3,4-diyl)bis(oxy))dipentanoate] | 1.03 | 0.015 | 79.20 | 98.43 |  |  |  |  |  | 
10 | CCCCCCCCC(CCCCCCCC)OC(=O)CCO[C@H]1CN(CCCCO)C[C@H]1OCCC(=O)OC(CCCCCCCC)CCCCCCCC [Compound 7, di(heptadecan-9-yl)3,3′-(((3R,4S)-1-(4-hydroxybutyl)pyrrolidine-3,4-diyl)bis(oxy))dipropionate] | 2.41 | 0.025 | 87.10 | 97.22 |  |  |  |  |  | 
11 | CCCCCCCCC(CCCCCCCC)OC(=O)CCCCO[C@H]1CN(CCCO)C[C@H]1OCCCCC(=O)OC(CCCCCCCC)CCCCCCCC [Compound 3, di(heptadecan-9-yl)5,5′-(((3S,4R)-1-(3-hydroxypropyl)pyrrolidine-3,4-diyl)bis(oxy))dipentanoate] | 6.98 | 0.016 | 98.84 | 97.92 |  |  |  |  |  | 
12 | CCCCCCCCCCC(CCCCCCCC)COC(=O)CCCCO[C@H]1CN(CCCO)C[C@H]1OCCCCC(=O)OCC(CCCCCCCC)CCCCCCCCCC (stereo partly drawn) [Compound 17, bis(2-octyldodecyl)5,5′-(((3R,4S)-1-(3-hydroxypropyl)pyrrolidine-3,4-diyl)bis(oxy))dipentanoate] | 8.00 | 0.03 | 95.10 | 98.16 |  |  |  |  |  | 
13 | CCCCCCCCC(CCCCCCCC)OC(=O)CCCCCO[C@H]1CN(CCCCO)C[C@H]1OCCCCCC(=O)OC(CCCCCCCC)CCCCCCCC [Compound 13, di(heptadecan-9-yl)6,6′-(((3R,4S)-1-(4-hydroxybutyl)pyrrolidine-3,4-diyl)bis(oxy))dihexanoate] | 12.45 | 0.046 | 81.29 | 97.39 |  |  |  |  |  | 
14 | CCCCCCCCC(CCCCCCCC)OC(=O)CCCCCO[C@H]1CN(CCCCCO)C[C@H]1OCCCCCC(=O)OC(CCCCCCCC)CCCCCCCC [Compound 12, di(heptadecan-9-yl)6,6′-(((3R,4S)-1-(5-hydroxypentyl)pyrrolidine-3,4-diyl)bis(oxy))dihexanoate] | 7.83 | 0.039 | 78.35 | 96.99 |  |  |  |  |  | 
15 | CCCCCCCCC(CCCCCCCC)OC(=O)CCCCCO[C@H]1CN(CCCO)C[C@H]1OCCCCCC(=O)OC(CCCCCCCC)CCCCCCCC [Compound 11, di(heptadecan-9-yl)6,6′-(((3R,4S)-1-(3-hydroxypropyl)pyrrolidine-3,4-diyl)bis(oxy))dihexanoate] | 10.95 | 0.014 | 80.71 | 97.58 | 80.71 | 10.95 | 0.014 | 97.58 | — (The toxicity of compounds 11 and 14 is less than 10%) | 100
